Experimental data reported in ChEMBL document CHEMBL1938391, “Design and synthesis of novel photoaffinity probes for study of the target proteins of oleanolic acid” (Bioorg Med Chem Lett, 2012).
pIC50: −log10 of the molar value.

Target: T1, Glycogen phosphorylase, muscle form (Oryctolagus cuniculus, UniProt P00489)
T1 sequence (P00489 whole entry): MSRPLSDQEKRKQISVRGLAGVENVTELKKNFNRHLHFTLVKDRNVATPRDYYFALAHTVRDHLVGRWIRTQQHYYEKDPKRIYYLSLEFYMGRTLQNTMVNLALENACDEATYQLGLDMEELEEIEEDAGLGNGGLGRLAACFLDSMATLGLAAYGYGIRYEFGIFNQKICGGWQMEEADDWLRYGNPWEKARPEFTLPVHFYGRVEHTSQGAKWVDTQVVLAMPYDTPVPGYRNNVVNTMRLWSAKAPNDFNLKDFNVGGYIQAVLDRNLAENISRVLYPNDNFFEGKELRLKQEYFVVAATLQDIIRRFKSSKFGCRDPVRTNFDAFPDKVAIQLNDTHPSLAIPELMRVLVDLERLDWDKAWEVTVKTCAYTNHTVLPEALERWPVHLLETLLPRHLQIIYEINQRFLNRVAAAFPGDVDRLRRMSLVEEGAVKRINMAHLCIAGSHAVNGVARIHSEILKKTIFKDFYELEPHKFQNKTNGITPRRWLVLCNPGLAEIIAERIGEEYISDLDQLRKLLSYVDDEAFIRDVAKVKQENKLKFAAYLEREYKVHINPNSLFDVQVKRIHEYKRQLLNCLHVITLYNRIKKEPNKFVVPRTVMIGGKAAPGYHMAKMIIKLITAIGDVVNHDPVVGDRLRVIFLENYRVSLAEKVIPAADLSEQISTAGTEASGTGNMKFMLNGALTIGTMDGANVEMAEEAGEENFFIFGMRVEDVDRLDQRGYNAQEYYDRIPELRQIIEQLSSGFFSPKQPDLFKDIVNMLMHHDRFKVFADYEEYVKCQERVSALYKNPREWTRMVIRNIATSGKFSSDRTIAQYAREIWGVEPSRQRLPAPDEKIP
Test: Inhibition of rabbit muscle glycogen phosphorylase a assessed as release of phosphate from glucose-1-phosphate after 25 mins using malachite green staining

SMILES | pIC50
CC1(C)CC[C@]2(C(=O)O)CC[C@]3(C)C(=CC[C@@H]4[C@@]5(C)CC[C@H](OC(=O)COCCOCCNC(=O)c6ccc(C(=O)c7ccc(NC(=O)CN=[N+]=[N-])cc7)cc6)C(C)(C)[C@@H]5CC[C@]43C)[C@@H]2C1 | 3.94
CC1(C)CC[C@]2(C(=O)O)CC[C@]3(C)C(=CC[C@@H]4[C@@]5(C)CC[C@H](OC(=O)COCCOCCNC(=O)c6ccc(C(=O)c7ccc(NC(=O)CCCC[C@@H]8SC[C@@H]9NC(=O)N[C@@H]98)cc7)cc6)C(C)(C)[C@@H]5CC[C@]43C)[C@@H]2C1 | 4.39
